Source: patent publication US20120282201A1, “NOVEL COMPOUNDS” (priority 2009, published 2012)

Experiment: Comparative example: solubility of BMDBM in 1:1 (w/w) mixture of C12-15 alkyl benzoate and a polymeric or solid UV-filter
Assay type: physicochemical
Text: Where necessary the mixture was centrifuged in order to obtain a clear supernatant.

CCCCC(CC)COc1ccc(-c2nc(-c3ccc(OC)cc3)nc(-c3ccc(OCC(CC)CCCC)cc3O)n2)c(O)c1 (stereo not drawn) [BEMT, bis-ethylhexyloxyphenol methoxyphenyl triazine]
Solubility of BMDBM in C12-15 alkyl benzoate/UV-filter 1:1 (200 mg BMDBM with 1000 mg of 1:1 (w/w) mixture, supernatant by HPLC after 1 month at RT): 3 wt.-%
Δ solubility of BMDBM related to cosmetic solvent (C12-15 alkyl benzoate/UV-filter 1:1): −4 wt.-%
Δ solubility of BMDBM (C12-15 alkyl benzoate/UV-filter 1:1 versus C12-15 alkyl benzoate): −11 wt.-%
